The subject of assay [1] is xanthan depolymerase. As to the kind of experiment: Inhibition of xanthan depolymerase activity, assayed viscosimetrically. The assay is classed as biochemical, Bacillus sp. (culture NRRL B-15992). The protocol:
(§1) A novel xanthan depolymerase was purified from the culture supernatant and examined for its effect on degrading xanthan. In the following, enzyme assays were conducted with either viscosity or reducing sugar measurements by incubating a 1.25 ml xanthan stock solution and a small amount of enzyme(s) at 25° C. Xanthan stock solution was prepared by dissolving 0.188% xanthan, 0.4 mM MgSO4, and 0.03 mM MnSO4 in 0.05 M sodium acetate buffer pH 5.4. At certain time intervals samples were taken for either viscosity or reducing sugar assay. Viscosity was measured at 25° C. (using a Contraves low-shear 30 rheometer, Middlesex, U.K. at a shear rate of 1.3 sec.^-1 1). The rheometer was equipped with a refrigerated circulating bath (Neslab Endoccal bath, Portsmouth, N.H.). Reducing sugars, calculated as glucose, were determined by the method of Somogyi, M., (1945), "A New Reagent for the Determination of Sugars", J. Biol. Chem. 160, 61-69. […] The changes in viscosity and reducing sugars between two time intervals (1.0 min to 2.0 min for Δ cps, 0.5 min to 1.5 min for Δ reducing sugars) were measured. Enzyme activity (in units) was expressed as Δ cps/min (depolymerase) or Δμmoles reducing sugar group released (as glucose) per min. (for both endo and exoglucanases). Specific enzyme activity was expressed as units per mg of protein.
Various chemicals including thiols, metal ions and metal-chelating agents were tested for inhibition of xanthan depolymerase activity. These chemicals (at 1 mM concentration unless otherwise stated) were added into xanthan stock solutions. Enzyme activity was assayed viscosimetrically.

The test system of assay [2] is culture B-15992. The experiment in a line: Effect of chemicals and biocide on growth of culture B-15992 in xanthan broth (viscosity loss). The assay is classed as cell-based, Bacillus sp. / Flavobacterium sp. mixed culture NRRL B-15992. The protocol: Chemicals and biocides, including those used in enhanced oil recovery operations were studied for their effect on the growth of culture B-15992 and on the activity of xanthan-degrading enzyme(s). Both aerobic and anaerobic conditions were tested. In order to simulate the conditions used in EOR field operation, xanthan was produced in the laboratory by growing Xanthomonas campestris according to the published procedure, Jeanes, A., et al, (1976), "Polysaccharide (xanthan) of Xanthomonas campestris NRRL B-1459: Procedures for culture maintenance and polysaccharide production, purification and analysis". Agricultural Research Service, U.S. Department of Agriculture AR-NC-51. After centrifugation, the culture broth was autoclaved and was diluted with brine to about 300 cps viscosity. A cell suspension of culture B-15992 obtained from colonies grown on agar plates was used as the innoculum. Growth of B-15992 was followed by monitoring decreases of viscosity of the culture broth and by microscopic observation.

The test system of assay [3] is xanthan depolymerase. As to the kind of experiment: Substrate specificity of xanthan depolymerase. The format is biochemical, Bacillus sp. (culture NRRL B-15992). As to conditions: forty μg of enzyme per assay. The protocol: as §1
Assay [4] relates to culture B-15992. The text has this: The stable mixed culture is hereinafter designated NRRL B-15992.

Read-outs that look alike come from different tables or passages of the source. A value given as a limit tells only on which side of the number the result lay.

The % Inhibition is the share of the control response that was lost under treatment. The low end stands for a response near the control, the high end for a response far below the control.

Take `[N-]=[N+]=[N-]` [sodium azide]: in assay [1] (inhibitor 1 mM), the “% Inhibition” value is recorded as 0%. As for `N#CC(Br)(Br)C(N)=O` [DBNPA, 2,2-dibromo-3-nitrilopropionamide], in assay [2] (10 ppm), the “prevention of growth of B-15992” value is “not effective in preventing the growth of B-15992” and the “Viscosity (cps after days incubation) Anaerobic” value was determined as 300 cps. In addition, the “time until solution viscosity was lost” value in assay [2] (10 ppm, aerobic) was at most 5 days. Besides, in assay [2] (10 ppm, aerobic, 5 days), the “Viscosity (cps after days incubation) Aerobic” value came to 1.5 cps. Take `OC[C@H]1O[C@@H](O[C@H]2[C@H](O)[C@@H](O)C(O)O[C@@H]2CO)[C@H](O)[C@@H](O)[C@@H]1O` (single isomer, unassigned) [D(+) cellobiose]: the “Enzyme Activity (μmoles reducing sugar/min)” value in assay [3] was 0 μmoles reducing sugar/min.

Consider arsenomolybdate, for which the “inhibition of xanthan depolymerase activity” value in assay [1] (concentrations of Table VI) is “inhibited strongly”. For the same compound, the “% Inhibition” value in assay [1] (inhibitor 4%) was 100%. For `[Cl][Fe]([Cl])[Cl]` [ferric chloride], in assay [1], the “% Inhibition” value worked out at 100% and the “inhibition of xanthan depolymerase activity” value is reported as “inhibited strongly”.

`O=C(O)CN(CCN(CC(=O)O)CC(=O)O)CC(=O)O` [EDTA]: the “% Inhibition” value in assay [1] is recorded as 0%.

For the compound `O=S([O-])S(=O)[O-].[Na+].[Na+]` [Na2 S2 O4, sodium dithionite], the “inhibition of xanthan depolymerase activity” value in assay [1] (0.2%) and in assay [1] (100 ppm) was “not inhibited” each time. The “Viscosity (cps after days incubation) Aerobic” value in assay [2] (75 ppm, aerobic, xanthan broth about 300 cps at start) is reported as 1.0 cps. Also, the “Viscosity (cps after days incubation) Anaerobic” value in assay [2] (75 ppm, about 300 cps at start) is recorded as 300 cps.

`OCl` [sodium hypochlorite]: the “inhibition of xanthan depolymerase activity” value in assay [1] (100 ppm) was “not inhibited”. Consider `O=C(O)c1cc[c]([Hg+])cc1.[OH-]` [p-hydroxymercuribenzoate], for which, in assay [1] (inhibitor 1 mM), the “% Inhibition” value worked out at 40%. `[Na+].[OH-]` [NaOH]: in assay [1] (5.0 mM (Trizma ph 8.5)), the “inhibition of xanthan depolymerase activity” value is recorded as “not inhibited”.

For `NC(=O)CI` [iodoacetamide], the “% Inhibition” value in assay [1] (inhibitor 1 mM) was found to be 0%. In the case of `c1ccc(-c2ccccn2)nc1` [α, α' bipyridyl], in assay [1] (inhibitor 1 mM), the “% Inhibition” value was 30%. With chlorophenol, the “inhibition of xanthan depolymerase activity” value in assay [1] (100 ppm) is listed as “not inhibited”.

For `O=C(O)CC(O)(CC(=O)O)C(=O)O` [citric acid], the “inhibition of xanthan depolymerase activity” value in assay [1] (5.5 mM) is recorded as “not inhibited”. For `NC(CO)(CO)CO` [Trizma], the “inhibition of xanthan depolymerase activity” value in assay [1] is “not inhibited”.

Take `N#CSCSC#N` [MBT 3522, methylene bisthiocyanate]: the “inhibition of xanthan depolymerase activity” value in assay [1] (100 ppm) was “failed to inhibit”.

In the case of `NC(N)=S` [thiourea], the “% Inhibition” value in assay [1] (inhibitor 1 mM) is 20%.

For `N.N.O=S(=O)(O)O` [ammonium sulfate], the “inhibition of xanthan depolymerase activity” value in assay [1] was “not inhibited”. As to `ClC(Cl)Cl` [chloroform], the “inhibition of xanthan depolymerase activity” value in assay [1] is “not inhibited”.

On to ferrous sulfate, for which the “inhibition of xanthan depolymerase activity” value in assay [1] (5.5 mM) is listed as “not inhibited”.

In the case of `c1cnc2c(c1)ccc1cccnc12` [1,10-phenanthroline], in assay [1] (inhibitor 1 mM), the “% Inhibition” value was 0%.

`O=C(O)c1cc(SSc2ccc([N+](=O)[O-])c(C(=O)O)c2)ccc1[N+](=O)[O-]` [5,5'-dithio-bis-2-n-nitrobenzoic acid]: the “% Inhibition” value in assay [1] (inhibitor 1 mM) is listed as 0%. Turning to `OC[C@H]1O[C@H](O[C@H]2O[C@H](CO)[C@@H](O)[C@H](O)[C@H]2O)[C@H](O)[C@@H](O)[C@@H]1O` [D(+) trehalose], the “Enzyme Activity (μmoles reducing sugar/min)” value in assay [3] was found to be 0 μmoles reducing sugar/min. Consider `NNC(N)=S` [thiosemicarbazide], for which the “% Inhibition” value in assay [1] (inhibitor 1 mM) is listed as 20%. For the compound `Oc1cccc2cccnc12` [8-hydroxyquinoline], in assay [1], the “% Inhibition” value is listed as 0%. As for `Clc1ccccc1` [chlorobenzene], the “inhibition of xanthan depolymerase activity” value in assay [1] (100 ppm) is listed as “not inhibited”. For the compound `On1ccccc1=S` [sodium omadine], the “inhibition of xanthan depolymerase activity” value in assay [1] was “failed to inhibit”. Take `[Cl-].[K+]` [KCl]: the “inhibition of xanthan depolymerase activity” value in assay [1] (1 mM) was “not inhibited”. Take `[Cl-].[Na+]` [NaCl]: the “growth of culture B-15992” value in assay [4] (10% salt concentration) is on record as “completely inhibited”; in assay [4] (salt concentration between 6-8%), “somewhat slower”; in assay [4] (up to 5% salt (NaCl) concentration) it was “not inhibited”. In addition, in assay [1], the “inhibition of xanthan depolymerase activity” value is given as “not inhibited”.

Regarding `N#CC(Br)(Br)C(N)=O` [dow Antimicrobial 7287, 2,2-dibromo-3-nitrilopropionamide], the “inhibition of xanthan depolymerase activity” value in assay [1] (100 ppm) is listed as “failed to inhibit”.

Regarding `c1c[nH]cn1` [imidazole], the “% Inhibition” value in assay [1] came to 30%. As for `C=O` [HCHO, formaldehyde], the “inhibition of xanthan depolymerase activity” value in assay [1] was “not inhibited”. In addition, in assay [2] (25 ppm, aerobic), the “time for B-15992 to degrade the xanthan solution” value is listed as 9 days. Besides, the “Viscosity (cps after days incubation) Aerobic” value in assay [2] (25 ppm, aerobic, 9 days, about 300 cps at start) is recorded as 1.5 cps; in assay [2] (50 ppm, aerobic), 300 cps. Besides, the “Viscosity (cps after days incubation) Anaerobic” value in assay [2] (25 ppm) and in assay [2] (50 ppm) was 300 cps each time. In assay [2] (25 ppm, compared with 10 ppm DBNPA), the “prevention of growth of B-15992” value is listed as “somewhat more effective”. In addition, the “changes in solution viscosity or cell growth” value in assay [2] (50 ppm, during 30 days of incubation) is listed as “no changes in solution viscosity or cell growth”.

In the case of `O=C(CCl)c1ccc(O)c(O)c1` [α-chloro-3,4-dihydroxyacetophenone], the “inhibition of xanthan depolymerase activity” value in assay [1] (100 ppm) is recorded as “not inhibited”.

Take `CCN1C(=O)C=CC1=O` [N--ethylmaleimide]: the “% Inhibition” value in assay [1] (inhibitor 1 mM) turned out to be 40%. For `[K+].[OH-]` [KOH], the “inhibition of xanthan depolymerase activity” value in assay [1] (5.0 mM (Trizma ph 8.5)) is reported as “not inhibited”. For `[Na+].[O-]c1cc(Cl)c(Cl)cc1Cl` [Dowicide B, sodium trichlorophenate], in assay [1] (100 ppm), the “inhibition of xanthan depolymerase activity” value is on record as “failed to inhibit”. For the compound `O=C(O)CI` [iodoacetic acid], in assay [1], the “% Inhibition” value turned out to be 0%. With Triton X-100, the “inhibition of xanthan depolymerase activity” value in assay [1] (4%) is listed as “not inhibited”. Besides, the “Viscosity (cps after days incubation) Aerobic” value in assay [2] (500 ppm, aerobic) stood at 90 cps. In addition, the “Viscosity (cps after days incubation) Anaerobic” value in assay [2] (500 ppm) is listed as 300 cps.
